This assay addresses recombinant human α-thrombin (Homo sapiens, UniProt P00734). The assay can be described thus: Thrombin amidolytic activity on S2238 with recombinant thrombin. The class given is biochemical. Particulars: 50 mM Tris pH 7.4, 100 mM NaCl, 1 mg/ml BSA, room temperature, 405 nm, read-out: Michaelis-Menten constant (Km) of S2238 for thrombin.

For orientation: Km means the substrate concentration at which the rate is half of its maximum. With `NC(N)=NCCC[C@H](NC(=O)[C@@H]1CCCCN1C(=O)[C@H](N)Cc1ccccc1)C(=O)Nc1ccc([N+](=O)[O-])cc1` [S2238, H-D-Phe-pipecolyl-Arg-pNA•2HCl], the Km turned out to be 3.25 ± 0.56 µM.

These data come from article PMC3203879 (PLoS ONE, 2011).
